This note sets out measurements from US20250115571A1, “OXOPIPERAZINE DERIVATIVES” (Inthera Bioscience AG, priority 2017, published 2025).

For one test, the system named is SW620. Description: 5-day cell proliferation assay (CTG). The conditions noted are these: Homo sapiens, SW-620, 120 h, SW620, Colorectal. Type of test: cell-based. As to the method:
For screening using a proliferation assay, the cells used were cultured at 37° C. with 5% CO2, except for those being cultured with L-15 medium (37° C. and 100% air, TABLE 7). Compound stock solutions (10 mM) were made in sterile water, aliquoted and stored at room temperature. Cisplatin was used as reference Control. Plastic consumables, culture media and supplements were purchased from well-known suppliers (TABLE 8).
Cell seeding (day −1). When necessary, cells were trypsinized using standard methods (see e.g. example 01). Cells were collected and resuspended in 5-6 mL of appropriate culture medium, counted and diluted to the needed density. Fifty-four μl (microliter) cells were seeded per well in a 384-well plate. Extra four wells per cell line were seeded on an additional plate for Day 0 reading (baseline cell density). Cells were incubated at 37° C. overnight.
Compound treatment and Day 0 reading (day 0). Tenfold final concentration of test compounds and Cisplatin were prepared in cell culture media (work dilutions). Six μl of work dilution solutions were dispensed into the corresponding wells in 384-well plates to bring the total volume up to 60 μl. Conditions were tested in triplicate. The plates were then incubated at 37° C. for five days. For the day 0 reading, 30 μl of CTG and 6 μl cell culture medium were added to the day 0 plates, contents mixed for 2 min on a plate shaker, and the plates incubated for 10 min at room temperature in the dark. Luminescence was recorded on an EnVision Multi Label Reader (2104-0010A, PerkinElmer, USA).
Endpoint CTG reading (day 5). The amounts of cells in the plates was determined by endpoint CTG-test. Thirty μl of CTG were added to the 60 μl of cell culture per well, contents mixed for 2 min on a plate shaker, and the plates incubated for 10 min at room temperature in the dark. Luminescence was recorded on an EnVision Multi Label Reader.
Data analysis. Fifty percent growth inhibition concentrations (GI50) were calculated based on percentage of control data (untreated cells) from each cell line (TABLE 5 (this example) and TABLE 6). Curves were fitted using a nonlinear regression model with a sigmoidal dose response. Examples of obtained curves are depicted in FIG. 2A-2F.

For test [1], the system named is hormone-refractory DU-145 human prostate cancer cells. Description: Cell-derived xenograft mouse model for prostate cancer (DU-145 CDX). Type of test: in vivo. The following applies: p.o. QD × 4 weeks; for T/C (tumor-to-control ratio, volume/volume): day 35. As to the method:
Male BALB/c nude mice (7-9 weeks of age) were injected with hormone-refractory DU-145 human prostate cancer cells. The cells were inoculated subcutaneously into the left flank of 48 mice. When tumors reached a mean volume of approximately 105 mm^3, mice were randomly assigned to eight treatment groups of each six mice (TABLE 12). Body weights were measured three times weekly prior to the initiation of dosing and daily thereafter. Tumor burden was assessed by caliper measurement three times weekly. Dosing breaks were applied when tolerability issues arose (body weight loss>10%). The study was terminated 4 weeks post first dosing. The experiment was performed in the Crown Bioscience Ltd. (Beijing) testing facility (Ground Floor, Light Muller Building, Changping Sector of Zhongguancun Scientific Park, No. 21 Huoju Road, Changping District, Beijing, CHIN).

The next test relates to PC3. As to the kind of experiment: 9-day colony survival assay (CFA). It counts as cell-based. The conditions noted are these: Homo sapiens, PC-3, 216 h, PC3 (prostate), read-out: GI50 (50% growth inhibition).
A further test relates to CaSki. As to the kind of experiment: 9-day colony survival assay (CFA). It counts as cell-based. The conditions noted are these: Homo sapiens, Ca-Ski, 216 h, CaSki (cervix), read-out: GI50 (50% growth inhibition). The source says: Cell culture. CaSki cells (cervical cancer) were obtained from CLS GmbH, Eppelheim, Germany (cat #300145) and subcultured in ready-to-use RPMI1640 Media (CLS #820700) after addition of “Antibiotic Antimycotic Solution” (Sigma-Aldrich, St Louis, USA) at 1:100 dilution. The cells were expanded, and aliquots kept frozen in liquid nitrogen according to manufacturer's instructions; tested for mycoplasma contamination and genotyped (Microsynth AG, Balgach, Switzerland). Once thawed, aliquots were passaged every second or third day at a seed density of 20′000 cells/cm^2; and used for a maximum of twenty passages. For passaging, cell culture flasks were rinsed twice with Ca++/Mg++-free Phosphate-Buffered Saline (DPBS, CLS #860015) and incubated with Accutase (CLS #830100) for 15 min at 37° C. Cells were resuspended in a four-fold volume of ready-to-use RPMI, centrifuged at 300 g for ten minutes, the supernatant discarded and the cells resuspended in ready-to-use RPMI1640 by pipetting up and down five times with a serological pipette. Cell density was determined with a Via-1 Cassette (Chemometec, Allerod, Denmark) on a Nucleocounter NC 3000 (Chemometec). Where not stated, consumables and chemicals were purchased from well-known suppliers.
Preparation of the cells for CFA. Cell culture flasks were rinsed twice with DPBS and incubated with Accutase for 15 min at 37° C. Cells were resuspended in a four-fold volume of ready-to use RPMI, centrifuged at 300 g for ten minutes, the supernatant discarded and the cells resuspended in ready-to-use RPMI1640 by pipetting up and down ten times with a serological pipette. Cell density was determined with a Via-1 Cassette on a Nucleocounter NC 3000. The required amount of cells was first diluted 1:10 in ready-to-use RPMI; cells pipetted five times up-down with a serological pipette; and the 1:10 solution added to the final volume needed for the whole assay setup. Cells were mixed again by pipetting up and down twenty times with a serological pipette. The cell density used for the experiment was of 140 cells/ml.
Seeding. Cells were seeded row-wise in 12-well plates, while triplicates were treated column-wise (i.e. all the first rows were seeded first, then the second rows, and finally the third rows). One and a half ml cell suspension solution (a total of 210 cells) were added per well.
Treatment. Compound stock solutions were prepared at a concentration of 30 mM in 50% DMSO/50% water; and diluted in the same solution so that the volume added to the wells was of 2.5 μl and the final DMSO well concentration of 0.08%. Untreated cells (negative controls) were incubated in a) medium only; and b) 0.08% DMSO. […] The plates were swirled gently after addition of the compounds and the cells incubated for nine days at 37° C. Culture incubation solutions were replaced after five days.
Staining. Colonies were washed twice with ice-cold DPBS and fixed on ice with 1 ml ice-cold 10% methanol solution for 30 min. The methanol solution was removed and colonies incubated with 0.1% Crystal Violet/DBPS for 20 min at room temperature. The wells were rinsed consecutively with 1.5, 1, and 0.5 ml water at room temperature and let dry.
Destaining and data evaluation. […] Absorbance was measured at 600 nm with a SpectraMax M2e reader (Molecular Devices, Sunnyvale, CA, USA). Percentage of colony formation was calculated from the average of the well triplicates compared to the untreated DMSO controls after subtraction of blank values. […]

With `CC(C)C[C@@H]1NCCN([C@@H](CC(C)C)C(=O)N2CCC3(C[C@@H]2C)OCC(CN2CCCC2)CO3)C1=O` (stereo partly drawn) [Compound 258, (3S)-1-[(2S)-4-methyl-1-oxo-1-[(3s,6s,8S)-8-methyl-3-(pyrrolidin-1-ylmethyl)-1,5-dioxa-9-azaspiro[5.5]undec-an-9-yl]pentan-2-yl]-3-(2-methylpropyl)piper-azin-2-one (^≠), isomer Z], the GI50 – broadly, the concentration at which growth is held to half of that of the control – in the test on SW620 amounted to 4 nM; in the test with PC3, 3 nM; with CaSki, 2 nM. Moreover, the “Tumor Size day 35 (Mean ± SEM)” value in test [1] (1 mg/kg) is given as 378 ± 27 mm^3; in test [1] (3 mg/kg), 105 ± 25 mm^3; in test [1] (6 mg/kg), 32 ± 2 mm^3; in test [1] (10 mg/kg) it was 47 ± 4 mm^3. For the same compound, the “T/C (tumor-to-control ratio, volume/volume)” value is 54.5% in test [1] (1 mg/kg), 15.2% in test [1] (3 mg/kg), 4.6% in test [1] (6 mg/kg) and 6.8% in test [1] (10 mg/kg).
In the case of `CC(C)C[C@@H]1NCCN([C@@H](CC(C)C)C(=O)N2CCC3(C[C@@H]2C)OCC(CN2CCC4(CC2)CC4)CO3)C1=O` (stereo partly drawn) [Compound 279, (3S)-1-[(2S)-4-methyl-1-oxo-1-[(3s,6s,8S)-3-{6-azaspiro[2.5]octan-6-ylmethyl}-8-methyl-1,5-dioxa-9-azaspiro[5.5]undec-an-9-yl]pentan-2-yl]-3-(2-methylpropyl)piper-azin-2-one (^≠), isomer Z], the figures for the GI50 in the test with SW620, in the test on PC3 and with CaSki were 2 nM, 1.5 nM and 4 nM, respectively. Also, the “Tumor Size day 35 (Mean ± SEM)” value in test [1] (3 mg/kg) is 516 ± 59 mm^3. In addition, in test [1] (3 mg/kg), the “T/C (tumor-to-control ratio, volume/volume)” value is 74.5%.
The matching figures for `CC(C)C[C@@H]1NCCN([C@@H](CC(C)C)C(=O)N2CCC3(C[C@@H]2C)OCC(CN2CCC2)CO3)C1=O` (stereo partly drawn) [Compound 284, (3S)-1-[(2S)-4-methyl-1-oxo-1-[(3s,6s,8S)-3-(azetidin-1-ylmethyl)-8-methyl-1,5-dioxa-9-azaspiro[5.5]undec-an-9-yl]pentan-2-yl]-3-(2-methylpropyl)piper-azin-2-one (^≠), isomer Z]: 7 nM, 3 nM, 6 nM, 347 ± 48 mm^3 and 50.1%.
